Results: the NIST ThermoML archive (doi:10.1016/j.jct.2009.05.009)

Experiment: xn = mol fraction of the nth substance listed
Settings: 101.3 kPa, Liquid, Vibrating tube method

CCCC[N+]1(C)CCCC1.O=S(=O)([N-]S(=O)(=O)C(F)(F)F)C(F)(F)F + O
mass density [kg/m3]
Settings	298.21 K	323.21 K
x2 = 0	1395.3	1373.6
x2 = 0.0298	–	1372.5
x2 = 0.0435	1394	–
x2 = 0.0654	1393.2	–
x2 = 0.0673	–	1371.1
x2 = 0.086	1392.3	–
x2 = 0.0913	1392.1	–
x2 = 0.1012	–	1369.9
x2 = 0.1262	1390.7	–
x2 = 0.1396	1390.1	–
x2 = 0.1406	–	1368.3
x2 = 0.1909	1388.1	–
x2 = 0.2033	–	1365.3
x2 = 0.2228	1387.1	–

CCCC[n+]1ccn(C)c1.O=S(=O)([N-]S(=O)(=O)C(F)(F)F)C(F)(F)F + O
mass density [kg/m3]
Settings	298.2 K	323.21 K
x2 = 0	1437.1	1413.8
x2 = 0.0308	1435.7	–
x2 = 0.0482	–	1411.8
x2 = 0.0753	1434	–
x2 = 0.0816	–	1410.5
x2 = 0.119	–	1408.8
x2 = 0.1194	1432.2	–
x2 = 0.1597	–	1407.1
x2 = 0.1731	1430	–
x2 = 0.2141	–	1404.5
x2 = 0.2391	1426.7	–
x2 = 0.2583	–	1402

CCn1cc[n+](C)c1.O=S(=O)([N-]S(=O)(=O)C(F)(F)F)C(F)(F)F + O
mass density [kg/m3]
Settings	298.19 K	323.17 K
x2 = 0	1519.3	1494.7
x2 = 0.0209	1518.3	–
x2 = 0.0353	–	1493.1
x2 = 0.0499	1516.9	–
x2 = 0.0581	–	1492
x2 = 0.0631	1516.2	–
x2 = 0.0834	–	1490.6
x2 = 0.1164	–	1488.7
x2 = 0.1205	1513	–
x2 = 0.1608	1510.7	–
x2 = 0.1611	–	1486.2
x2 = 0.2032	1508.1	–
x2 = 0.2221	–	1482.4
x2 = 0.3025	1501.3	–

CCCCn1cc[n+](C)c1.F[P-](F)(F)(F)(F)F [1-butyl-3-methylimidazolium hexafluorophosphate] + O
mass density [kg/m3]
Settings	x2 = 0	x2 = 0.0431	x2 = 0.0982	x2 = 0.1222	x2 = 0.1566	x2 = 0.1873	x2 = 0.2548	x2 = 0.2971
298.15 K	1368.3	1366.5	1363.5	1362.1	1360.1	1358.5	1355.5	1354.1
323.15 K	1347.7	1345.6	1342.2	1340.6	1338.5	1336.4	1332.3	1329.9

CCCCn1cc[n+](C)c1.F[B-](F)(F)F [1-butyl-3-methylimidazolium tetrafluoroborate] + O
mass density [kg/m3]
Settings	x2 = 0	x2 = 0.0895	x2 = 0.195	x2 = 0.308	x2 = 0.4996	x2 = 0.75	x2 = 0.899
298.15 K	1201.1	1198.3	1194.4	1189.3	1177.8	1147.9	1100.7
303.15 K	1197.4	1194.6	1190.9	1185.8	1173.9	1143.8	1097.2
333.15 K	1175.4	1172.8	1169	1163.9	1151.5	1121	1076.4
